Data published in US20180016259A1, “QUINAZOLINE INHIBITORS OF ACTIVATING MUTANT FORMS OF EPIDERMAL GROWTH FACTOR RECEPTOR” (AstraZeneca AB, priority 2013, published 2018).
Read-outs that look alike come from different tables or passages of the source.

Columns and labels:
[1] = Brain blood barrier penetration assay (short oral absorption model with in vitro blood and brain binding); assay type: in vivo; conditions: male Han Wistar rats, oral 2 mg/kg in 1% methylcellulose; for Kp uu: rat
Source text: Both Kp,uu brain and Kp,uu CSF should be the main parameters measured and optimized in CNS drug discovery (Di L et al., Journal of Medicinal Chemistry [2013], 56: 2-12). Kp,uu brain, the relationship between concentrations of unbound drug in brain and in blood, predicts drug action on metastatic tumors in brain Leptomeningeal metastasis (LM) results from metastatic spread of cancer to the leptomeninges, giving rise to central nervous system dysfunction. Kp,uu CSF represents the distribution of drug in CSF as compared to that in blood, which drives drug response during leptomeningeal metastasis treatment.
In vitro blood and brain binding assay was carried out on a HT-Dialysis plate (Gales Ferry, Conn.) with semi-permeable membrane. Diluted blood (1:1 with DPBS pH7.4) and brain homogenate (1:3 with DPBS pH7.4) were spiked with 5 μM test compound (in triplicate) and dialyzed against equal volume of 150 μL 100 mM PBS buffer (pH7.4) at 37° C. for 4 hours in a slowly rotated plate. At the end of incubation, a 50 μL aliquot from the receiver side and a […] from the donor chamber were taken. The 5 μL sample was further diluted with 45 μL of blank blood or brain homogenate. Paired samples were matrix-matched with either buffer or blank blood/brain homogenate and mixed for 2 min, and then precipitated with 150 μL cold acetonitrile with 100 ng/mL tolbutamide as internal standard. After centrifuging at 4000 rpm for 20 min, supernatant was diluted with 0.1% formic acid aqueous solution and analyzed for LC/MS/MS (API 4000, Applied Biosystems, Foster City). […]. D is dilution factor.
A Short oral absorption (SOA) model is an in-vivo screening model to identify brain penetration of a compound. Six male Han Wistar rats purchased from Beijing Vital River were orally dosed with the compound at 2 mg/kg in 1% methylcellulose. At 0.25, 0.5, 1, 2, 4 and 7 hour post-dose, cerebral spinal fluid (CSF) was collected from cisterna magna, and blood samples (>60 μL/time point/each site) were collected via cardiac puncture, into separate EDTA […] tubes, and then immediately diluted with 3-fold volume of water. Brain tissue was harvested and homogenized in 3× volume of 100 mM phosphate buffered saline (pH7.4). All samples were stored at ˜−70° C. prior to LC/MS/MS analysis.
Standards were prepared by spiking blank blood, brain homogenate and artificial CSF covering 0.2 to 500 ng/mL. Homogenized brain tissue along with blood samples were precipitated by adding 3-fold volume of cold acetonitrile containing internal standard (40 ng/mL Dexamethasone and 40 ng/mL Diclofenac), and 10 μL of CSF samples were precipitated with 100 μL of cold acetonitrile containing internal standard. After 2 min vortex and 5 min centrifugation at 14,000 rpm, supernatant was analyzed by LC/MS/MS (API 4000, Applied Biosystems, Foster City). Two sets of standard curves were run at the beginning and end of each batch from blood sample analysis. For brain and CSF samples, one standard curve was analyzed along with test samples.
Total brain levels, expressed as brain/blood ratio (Kp,brain) were measured by AUCbrain/AUCblood in rodents after oral administration. Free fraction of test compound in biological matrix was determined by in vitro blood and brain binding assay. Kp,uu brain and Kp,uu CSF were calculated by the following equation: Kp,uu brain=AUCbrain/AUCblood×(fu,brain/fu.blood) and Kp,uu CSF=AUCCSF/(AUCblood×fu.blood).

[2] = literature reports; cited from earlier work

Compound: COc1cc2ncnc(Nc3cccc(Cl)c3F)c2cc1OC(=O)N1CCN(C)C[C@H]1C [Example 1, 4-[(3-Chloro-2-fluorophenyl)amino]-7-methoxyquinazolin-6-yl (2R)-2,4-dimethylpiperazine-1-carboxylate]
- Kp uu ([1]; male, Han Wistar, in vivo, po, 2 mg/kg, AUCCSF/(AUCblood x fu,blood), read-out: Kp, uu CSF): 1 to 1.3
- Kp uu ([1]; male, Han Wistar, in vivo, po, 2 mg/kg, AUCbrain/AUCblood x (fu,brain/fu,blood), read-out: Kp, uu brain): 0.8 to 1.3

Compound: COc1cc2ncnc(Nc3cccc(Cl)c3F)c2cc1OC(=O)N1CCN(C)C[C@@H]1C [Example 3, 4-[(3-Chloro-2-fluorophenyl)amino]-7-methoxyquinazolin-6-yl (2S)-2,4-dimethylpiperazine-1-carboxylate]
- Kp uu ([1]; CSF / blood, AUCCSF/(AUCblood x fu,blood), read-out: Kp, uu CSF): 2.6

Compound: CN(C)C/C=C/C(=O)Nc1cc2c(Nc3ccc(F)c(Cl)c3)ncnc2cc1O[C@H]1CCOC1 [afatinib]
- adverse effects, such as skin rash and diarrhoea, share of NSCLC patients treated [2]: > 90%

Compound: COc1cc2ncnc(Nc3ccc(F)c(Cl)c3)c2cc1NC(=O)/C=C/CN1CCCCC1 [dacomitinib]
- adverse effects, such as skin rash and diarrhoea, share of NSCLC patients treated [2]: > 90%

Compound: CNC(=O)CN1CCC(Oc2cc3c(Nc4cccc(Cl)c4F)ncnc3cc2OC)CC1 [sapitinib]
- Kp, uu CSF ([1]; AUCCSF/(AUCblood x fu,blood)): Below quantification limit
- Kp uu ([1]; AUCbrain/AUCblood x (fu,brain/fu,blood), read-out: Kp, uu brain): 0.13
